Tests used:
NOD2 [1] = biological target: T1, NOD2 (Homo sapiens, UniProt Q9HC29); assay: HEK-Blue NOD2 cell line reporter assay (NF-κB-inducible SEAP); type: cell-based; settings: HEK-Blue NOD2 cells, 18 h, mean ± SEM; for NOD2 activity at 2 μM (fold increase): NF-κB transcriptional (SEAP) activity relative to 0.1% DMSO; for EC50: 7 or 8 concentrations 1 nM to 20 μM
T1 construct: host or cells: HEK-Blue NOD2 cells (HEK293-derived)
Description: To determine the NOD2 agonistic potential of the synthesized desmuramylpeptides at the cellular level, we used the validated and commercially available HEK-Blue NOD2 cell line reporter assay. HEK-Blue NOD2 cells were first treated for 18 h with MDP, 1, or the novel desmuramylpeptides at 2 μM. The NF-κB transcriptional activity measured was normalized to that of the vehicle treated (0.1% DMSO) control HEK-Blue NOD2 cells.
(§1) HEK-Blue NOD2 and NOD1 cell line reporter assays are derived from HEK293 cells by cotransfection of the hNOD2 or hNOD1 genes, respectively, and an NF-κB-inducible secreted embryonic alkaline phosphatase (SEAP) reporter gene. Following activation of NOD2 or NOD1, the resulting NF-κB induces production of SEAP, the levels of which can be quantified colorimetrically. […] After 18 h of incubation (37 °C, 5% CO2), secreted embryonic alkaline phosphatase (SEAP) activity was determined spectrophotometrically as absorbance at 630 nm (BioTek Synergy microplate reader; Winooski, VT, U.S.A.). EC50 values were calculated using Prism software (version 9; GraphPad Software, CA, U.S.A.). For determination of specificity, HEK-Blue NOD2 cells (2.5 × 10^5 cells/mL) were first pretreated for 1 h with a 10 μM NOD2 antagonist, before the addition of the compounds (2 μM), with incubation for 18 h. SEAP activity in the supernatants was determined as above. The experiments were run in duplicate and repeated as at least two independent biological replicates.

human PBMCs = assay: Cytokine release from peripheral blood mononuclear cells (cytometric bead array); type: cell-based; settings: 2 μM, 18 h, without LPS
Description: The immunostimulatory effects of the selected desmuramylpeptides were evaluated using human primary peripheral blood mononuclear cells (PBMCs). This heterogeneous mixture of immune cells allowed the study of the effects of these NOD2 agonists in a physiologically relevant system, where other NOD2-interacting and downstream signaling proteins were present. The effects of desmuramylpeptides were first determined for the secreted cytokine profile using a cytometric bead array cytokine kit. Moreover, considering that activation of NOD2 is also an important amplification signal for Toll-like receptor (TLR)-induced inflammatory responses,[79]−[81] we also examined the effects on cytokine secretion of the combination of desmuramylpeptides with LPS, a well-known TLR4 agonist.
In line with previous studies, the effects of MDP and the desmuramylpeptides were most pronounced for the induction of the chemokine IL-8.[82]
Peripheral blood mononuclear cells were seeded (1 × 10^6 cells/mL) in 48-well plates in 500 μL of growth medium and treated with the compounds (2 μM) or with the corresponding vehicle (0.1% DMSO) in the absence and presence of LPS (10 ng/mL). Cell-free supernatants were collected after 18 h of incubation (37 °C, 5% CO2) and stored at −80 °C until tested. Cytokine production was determined with the BD Cytometric Bead Array Human Inflammatory Cytokines Kit (contents: IL-8, IL-1β, IL-6, IL-10, TNF, IL-12p70; BD Bioscience) on an Attune NxT flow cytometer (Thermo Fisher Scientific, Waltham, MA, U.S.A.). Standard curves were generated using recombinant cytokines contained in the kit. The data were analyzed using the FlowJo (Tree Star, Inc., Ashland, OR, U.S.A.) and Prism (GraphPad, San Diego, CA, U.S.A.) software. The experiments were repeated as four independent biological replicates. Statistical significance was determined by repeated measures one-way ANOVA followed with Dunnett’s multiple comparisons test.

NIH/OlaHsd mice = assay: In vivo ovalbumin-specific antibody response, first experiment (neutral liposomes); design: species or system mouse; settings: for Log10 (anti-OVA IgG1/anti-OVA IgG2a): first in vivo experiment, one week after the booster dose, mean ± SEM of 5 mice
Description: To determine whether enhanced antigen presentation in vitro is correlated to in vivo adjuvant activities, an immunization study was performed in a murine model of adjuvanticity. Specifically, the selected desmuramylpeptides were investigated for induction of systemic immune responses against the model antigen ovalbumin. Seven groups of NIH/OlaHsd mice were immunized with ovalbumin-containing neutral liposomes, either alone or with additional adjuvants of MDP or the desmuramylpeptides 1, 68, 74, 75, or 81. After immunization and one booster dose, the mice sera were collected and assayed for ovalbumin-specific IgG antibodies (Figure 10).
Multilamellar liposomes were prepared by the modified thin lipid film method as described previously.[130],[131] For the preparation of neutral liposomes, a 7:5 molar ratio of egg-phosphatidylcholine and cholesterol was used. For the preparation of negatively charged liposomes, a 7:5:1 molar ratio of egg-phosphatidylcholine, cholesterol, and dicetylphosphate was used, while a 7:5:0.5 molar ratio of egg-phosphatidylcholine, cholesterol, and Man-PEG-Pam was used in the preparation of mannosylated liposomes. Lipids (total lipid concentration, 4 mg/mL) were dissolved in chloroform/methanol (2:1). A methanol or chloroform/methanol solution of MDP or the desmuramylpeptides was added to the lipid solution for a final concentration of 2 mM and 1.5 mM for the first (Figure 10) and second (Figure 11) experiments, respectively. After rotary evaporation of the solvent, the remaining lipid film was dried in vacuum for 1 h and then dispersed by gentle handshaking in an ovalbumin solution in saline (0.0667 and 0.1 mg/mL for the first and second experiments, respectively). This was then left overnight at 4 °C to swell and stabilize. Liposome size was reduced by sonification. Nonentrapped material was not separated from liposomes, and the complete liposome suspension was used for immunizations.
For the first experiment (Figure 10), sex-matched NIH/OlaHsd mice (five per group) were immunized subcutaneously in the tail base and boosted one time after 21 days. The injection volume in all experimental groups was 0.15 mL per mouse, which corresponds to 10 μg of OVA, […], and 0.30 μmol of MDP and desmuramylpeptides. For the second experiment (Figure 11), sex-matched NIH/OlaHsd mice (five per group) were immunized and boosted two times subcutaneously into the tail base at 21-day intervals. The injection volume in all experimental groups was 0.1 mL per mouse, which corresponds to 10 μg of OVA, 400 μg of lipids, and 0.15 μmol of MDP and 75. The mice were anesthetized with ip application of ketamine/xylazine (25 mg/kg each) prior to blood collection from the axillary plexus on the seventh day after the last booster dose. Individual serum from each animal was decomplemented at 56 °C for 30 min and then stored at −20 °C until tested.
ELISA assays were performed as detailed previously.[46] Briefly, high-binding ELISA plates (Costar, U.S.A.) were coated with a 15 μg/mL solution of ovalbumin in carbonate buffer, pH 9.6, and incubated overnight at room temperature. Nonspecific antibody binding was blocked with 0.5% w/v bovine serum albumin in PBS-T (0.05% (v/v) Tween 20 in phosphate-buffered saline) for 2 h at 37 °C. After washing, five serial dilutions of mice sera and standard preparations were added in duplicate. Plates were incubated overnight at room temperature, washed, and analyzed for ovalbumin-specific IgG levels by incubation with HRP-conjugated goat anti-mouse IgG (2 h at 37 °C) and then, after washing, with 0.6 mg/mL o-phenylenediaminedihydrochloride solution in citrate-phosphate buffer, pH 5.0, with 0.5 μL of 30% H2O2 per milliliter for 30 min at room temperature in the dark. The enzymatic reaction was stopped with 12.5% H2SO4, and absorbance at 492 nm was measured using a microplate reader (Thermo Fisher Scientific, Waltham, MA, U.S.A.). […]

[2] = design: method as in PMID 29543461; settings: earlier work of the group; cited from earlier work
NOD1 = biological target: T2, NOD1 (Homo sapiens, UniProt Q9Y239); assay: HEK-Blue NOD1 cell line reporter assay (selectivity); type: cell-based; settings: HEK-Blue NOD1 cells, 2 μM, 18 h
T2 construct: host or cells: HEK-Blue NOD1 cells (HEK293-derived)
T2 sequence (Q9Y239 1-953): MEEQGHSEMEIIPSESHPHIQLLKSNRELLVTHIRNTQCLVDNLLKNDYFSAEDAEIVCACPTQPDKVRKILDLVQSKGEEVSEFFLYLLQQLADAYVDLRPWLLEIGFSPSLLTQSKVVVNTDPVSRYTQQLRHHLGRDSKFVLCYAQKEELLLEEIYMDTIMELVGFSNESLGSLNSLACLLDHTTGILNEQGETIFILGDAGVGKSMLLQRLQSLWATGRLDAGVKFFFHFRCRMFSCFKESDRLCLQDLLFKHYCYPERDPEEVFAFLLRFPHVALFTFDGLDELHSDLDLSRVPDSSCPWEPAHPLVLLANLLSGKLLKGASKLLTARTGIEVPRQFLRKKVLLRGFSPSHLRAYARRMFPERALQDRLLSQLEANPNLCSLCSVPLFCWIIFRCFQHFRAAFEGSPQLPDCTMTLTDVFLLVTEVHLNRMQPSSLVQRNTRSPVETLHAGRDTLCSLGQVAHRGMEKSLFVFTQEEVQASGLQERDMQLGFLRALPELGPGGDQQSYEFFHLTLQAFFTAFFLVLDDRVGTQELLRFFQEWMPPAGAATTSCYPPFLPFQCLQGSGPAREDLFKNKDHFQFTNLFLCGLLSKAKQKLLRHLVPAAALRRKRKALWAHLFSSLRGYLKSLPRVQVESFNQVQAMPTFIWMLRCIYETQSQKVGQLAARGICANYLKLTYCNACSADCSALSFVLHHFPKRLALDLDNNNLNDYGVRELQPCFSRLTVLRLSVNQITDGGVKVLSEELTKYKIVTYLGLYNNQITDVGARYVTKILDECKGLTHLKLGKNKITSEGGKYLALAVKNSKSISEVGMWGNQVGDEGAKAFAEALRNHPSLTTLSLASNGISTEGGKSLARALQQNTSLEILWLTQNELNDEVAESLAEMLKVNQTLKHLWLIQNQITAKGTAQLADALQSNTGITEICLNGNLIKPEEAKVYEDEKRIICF
Description: As NOD2 and NOD1 agonists share certain structural characteristics, we wanted to determine whether these compounds selectively target NOD2. Selectivity against NOD1 of MDP and all of these synthesized desmuramylpeptides was analyzed in an analogous assay with the HEK-Blue NOD1 cell line.
as §1
Supporting figure S2. NOD1 agonistic activities of desmuramylpeptides. […]

NOD2 [3] = biological target: T1, NOD2; assay: Specificity: NOD2 antagonist pretreatment of HEK-Blue NOD2 cells; type: cell-based; settings: 10 μM NOD2 antagonist 1 h, then 2 μM compound 18 h
Description: Furthermore, the specificities were determined by pretreating HEK-Blue NOD2 cells with a previously reported NOD2 antagonist[77] prior to stimulation with MDP (2 μM) or the desmuramylpeptides (2 μM). The resulting NF-κB-induced SEAP activities were compared to those of the controls without the NOD2 antagonist pretreatment.
as §1
Supporting figure S2. […]

[4] = neutral liposomes, 0.30 μmol adjuvant per dose, 1 week after booster

T1 sequence (Q9HC29 whole entry): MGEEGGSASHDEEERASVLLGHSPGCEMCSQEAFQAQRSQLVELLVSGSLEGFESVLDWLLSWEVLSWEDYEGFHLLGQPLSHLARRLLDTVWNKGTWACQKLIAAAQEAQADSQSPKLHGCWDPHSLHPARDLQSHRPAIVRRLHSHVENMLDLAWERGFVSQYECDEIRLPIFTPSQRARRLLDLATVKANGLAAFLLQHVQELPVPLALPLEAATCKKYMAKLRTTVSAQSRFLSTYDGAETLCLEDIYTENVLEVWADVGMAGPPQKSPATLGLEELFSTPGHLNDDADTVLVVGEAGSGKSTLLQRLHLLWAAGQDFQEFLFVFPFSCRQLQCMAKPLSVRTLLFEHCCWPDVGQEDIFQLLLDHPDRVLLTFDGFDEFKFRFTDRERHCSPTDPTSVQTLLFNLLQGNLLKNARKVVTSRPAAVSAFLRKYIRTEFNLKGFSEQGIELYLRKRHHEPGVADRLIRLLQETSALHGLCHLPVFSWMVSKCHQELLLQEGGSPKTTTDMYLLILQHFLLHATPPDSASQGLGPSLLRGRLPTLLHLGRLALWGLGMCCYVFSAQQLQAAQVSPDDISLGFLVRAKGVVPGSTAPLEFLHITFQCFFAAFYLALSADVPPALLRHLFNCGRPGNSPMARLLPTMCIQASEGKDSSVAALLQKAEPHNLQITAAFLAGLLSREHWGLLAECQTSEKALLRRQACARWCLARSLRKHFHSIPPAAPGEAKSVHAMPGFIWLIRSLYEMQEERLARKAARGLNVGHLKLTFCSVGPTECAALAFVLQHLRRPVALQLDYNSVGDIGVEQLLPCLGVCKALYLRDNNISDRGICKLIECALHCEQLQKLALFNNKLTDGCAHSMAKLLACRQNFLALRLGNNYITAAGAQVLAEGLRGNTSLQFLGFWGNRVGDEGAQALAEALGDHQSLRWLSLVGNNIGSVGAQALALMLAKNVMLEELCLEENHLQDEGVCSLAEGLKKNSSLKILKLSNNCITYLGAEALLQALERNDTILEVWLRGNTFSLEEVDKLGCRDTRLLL

Structure (SMILES)	NOD2 activity at 2 μM (fold increase) (NOD2 [1])	EC50 (NOD2 [1]) [nM]	Induction of cytokines IL-1β, IL-6, IL-8 and TNF-α, compound alone (human PBMCs)	Log10 (anti-OVA IgG1/anti-OVA IgG2a) (NIH/OlaHsd mice)	Ovalbumin-specific IgG1 response (in words) (NIH/OlaHsd mice; [4])	Adjuvant activity: ovalbumin-specific IgG (in words) (NIH/OlaHsd mice; neutral liposomes, 0.30 μmol adjuvant per dose, s.c., 1 week after booster)	Pyrogenicity [2]	Ovalbumin-specific IgG2a response (in words) (NIH/OlaHsd mice; [4])	NOD1 agonistic activity (NOD1)	NF-κB transcriptional activity after NOD2 antagonist pretreatment (NOD2 [3])
CCOC(=O)CC[C@@H](NC(=O)[C@@H](NC(=O)CNC(=O)/C=C/c1ccc(OC(C)=O)c(OC)c1)C(C)C)C(=O)OCC [Compound 73, Diethyl ((E)-3-(4-Acetoxy-3-methoxyphenyl)acryloyl)glycyl-L-valyl-D-glutamate]	3.05 ± 0.03	62 ± 27	induced small increases in the levels of all four of these cytokines	–	–	–	–	–	–	–
CCOC(=O)CC[C@@H](NC(=O)[C@@H](NC(=O)CNC(=O)/C=C/c1ccc(O)c(OC)c1)C(C)C)C(=O)OCC [Compound 1]	–	–	–	1.68 ± 0.06	largely IgG1-based response	only marginal adjuvant activity	devoid of pyrogenicity	–	–	–
CCCCCCCCCCCC(=O)Oc1ccc(/C=C/C(=O)NCC(=O)N[C@H](C(=O)N[C@H](CCC(=O)OCC)C(=O)OCC)C(C)C)cc1OC [Compound 74, Diethyl ((E)-3-(4-(Dodecanoyloxy)-3-methoxyphenyl)acryloyl)glycyl-L-valyl-D-glutamate]	3.17 ± 0.03	30 ± 5	induced small increases in the levels of all four of these cytokines	2.90 ± 0.39	–	–	–	slight suppression of the IgG2a response	–	–
CCOC(=O)CC[C@@H](NC(=O)[C@@H](NC(=O)CNC(=O)/C=C/c1ccc(O)c(O)c1)C(C)C)C(=O)OCC [Compound 21, Diethyl ((E)-3-(3,4-Dihydroxyphenyl)acryloyl)glycyl-L-valyl-D-glutamate]	2.28 ± 0.07	1730 ± 101	–	–	–	–	–	–	showed no activity in the NOD1 assay	reduced NOD2 activation
